The text below walks through data of PMC6386767, “Characterization of recombinant fructose-1,6-bisphosphatase gene mutations: evidence of inhibition/activation of FBPase protein by gene mutation” (Bioscience Reports, 2019).

Structures are written as SMILES. Where a chain is given by its changes, count along the chain named.

Common to all, as to format: biochemical
For one test, the target named is T1, pig kidney FBPase M177A (Sus scrofa, UniProt P00636, M178A).
T1 construct: His6 (C); made in house; host or cells: Escherichia coli BL21 (DE3)
T1 sequence (P00636 1-338 M178A): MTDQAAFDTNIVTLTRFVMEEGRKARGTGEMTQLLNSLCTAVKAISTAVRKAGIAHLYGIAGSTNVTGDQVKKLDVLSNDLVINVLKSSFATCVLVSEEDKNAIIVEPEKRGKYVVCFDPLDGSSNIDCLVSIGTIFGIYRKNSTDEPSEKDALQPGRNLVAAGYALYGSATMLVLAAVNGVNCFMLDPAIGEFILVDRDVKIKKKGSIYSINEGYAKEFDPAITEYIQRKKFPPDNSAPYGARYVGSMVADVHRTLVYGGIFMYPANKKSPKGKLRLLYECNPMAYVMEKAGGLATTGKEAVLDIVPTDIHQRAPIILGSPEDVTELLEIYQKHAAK
Put plainly: Malachite Green kinetic assay, M177A mutant. To be noted: for IC50: FBP substrate 10 to 50 µM. Here is the method: (§1) For the kinetic assay, a standard curve was obtained from an ammonium molybdate Malachite Green inorganic phosphate assay (OD660 nm). The purified FBPase protein was dialyzed ×3 in 50 mM Tris buffer at pH 7.5 at 4°C. For enzyme concentration, absorbency values were recorded for all five mutant proteins using spectrophotometer readings at OD280 nm. To quantitate enzyme concentration, the enzymes were calculated based on the quantity of micrograms per microliter (µg/µl) present. Final concentration of WT and mutant enzymes was between 2.5 and 5.0 µg/µl. Using a colorimetric assay as described below, specific activity (SA) was determined. At last, all kinetic and binding assays described below were performed in 50 mM Tris pH 7.5.
(§2) Kinetic assays were performed for WT and mutant enzymes to identify functional differences between the WT enzyme and the mutants. […] Readings recorded at OD660 nm for each enzyme were applied to the standard curve equation. Micromoles of inorganic phosphate were calculated to determine the SA of mutant enzymes.
(§3) For each clone, the kinetic assay was performed in duplicates of triplicates. Malachite Geen was used to detect inorganic phosphate. Two separate clones were processed independently of the same mutant. All kinetic data were fit to symmetric sigmoidal curve using Origin software based on methods previously described [[27–29]]. More specifically, for kinetic parameters established via curve fitting (shown in Tables 1–3; and in Figure 5A,B), the equation y = d + (a − d)/1 + (x/c)^b was used where ‘x’ is represented by apparent Michelis constant (Km) when y = Vmax. […] P-values were significant at <0.001 and represent a comparison with the WT enzyme.

The target in another test is T2, pig kidney FBPase L73A (Sus scrofa, UniProt P00636, L74A).
T2 construct: His6 (C); made in house; host or cells: Escherichia coli BL21 (DE3)
T2 sequence (P00636 1-338 L74A): T1 sequence (P00636 1-338 M178A) with L74A, A178M
Put plainly: Malachite Green kinetic assay, L73A mutant. To be noted: enzyme L73A; for IC50: FBP substrate 10 to 50 µM. As to the method:
as §1, §2, §3

Another test deals with T3, pig kidney FBPase WT (Sus scrofa, UniProt P00636).
T3 construct: His6 (C); made in house; host or cells: Escherichia coli BL21 (DE3)
T3 sequence (P00636 1-338): T1 sequence (P00636 1-338 M178A) with A178M
Put plainly: Malachite Green kinetic assay, WT enzyme. The following applies: for IC50: FBP substrate 10 to 50 µM. As to the method:
as §1, §2, §3

For another test, the target named is T4, pig kidney FBPase Y113A (Sus scrofa, UniProt P00636, Y114A).
T4 construct: His6 (C); made in house; host or cells: Escherichia coli BL21 (DE3)
T4 sequence (P00636 1-338 Y114A): T1 sequence (P00636 1-338 M178A) with Y114A, A178M
Kind of test: Malachite Green kinetic assay, Y113A mutant. The following applies: for IC50: FBP substrate 10 to 50 µM. As to the method: as §1, §2, §3

The target of the next test is T5, pig kidney FBPase K112A (Sus scrofa, UniProt P00636, K113A).
T5 construct: His6 (C); made in house; host or cells: Escherichia coli BL21 (DE3)
T5 sequence (P00636 1-338 K113A): T1 sequence (P00636 1-338 M178A) with K113A, A178M
Put plainly: Malachite Green kinetic assay, K112A mutant. The following applies: for IC50: FBP substrate 10 to 50 µM. Here is the method: as §1, §2, §3

Setting [1] is: association (binding) constant from saturation curve.

Turning to `Nc1ncnc2c1ncn2[C@@H]1O[C@H](COP(=O)(O)O)[C@@H](O)[C@H]1O` [AMP], the “AMP Hill coefficient” value was 2.6 (± 0.2) on pig kidney FBPase M177A (enzyme M177A_1), 2.8 (± 0.1) on pig kidney FBPase M177A (enzyme M177A_2 (second clone)), 2.1 (± 0.2) at pig kidney FBPase L73A and 2.2 (± 0.1) on pig kidney FBPase WT. Moreover, the IC50 against pig kidney FBPase M177A (enzyme M177A_1) was 3500 nM; at pig kidney FBPase M177A (enzyme M177A_2) it was 3900 nM; against pig kidney FBPase L73A, 6950 nM; on pig kidney FBPase WT, 7500 nM; against pig kidney FBPase Y113A (enzyme Y113A_1), 48600 nM; against pig kidney FBPase Y113A (enzyme Y113A_2) it was 55300 nM. The IC50 at pig kidney FBPase K112A (enzyme K112A_1) was found to be 68500 nM; on pig kidney FBPase K112A (enzyme K112A_2), 52300 nM.
Take `O=P(O)(O)OC[C@H]1O[C@@](CO)(OP(=O)(O)O)[C@@H](O)[C@@H]1O` [F2,6-BP, fructose-2,6-bisphosphate]: the Ki on pig kidney FBPase M177A (enzyme M177A) was 170 nM; on pig kidney FBPase L73A, 1350 nM; on pig kidney FBPase WT it was 250 nM; at pig kidney FBPase Y113A (enzyme Y113A), 250 nM; on pig kidney FBPase K112A (enzyme K112A) it was 240 nM. Further, the IC50 against pig kidney FBPase M177A (enzyme M177A_1) worked out at 750 nM; against pig kidney FBPase M177A (enzyme M177A_2) it was 620 nM; against pig kidney FBPase L73A, 7250 nM; at pig kidney FBPase WT, 1500 nM; on pig kidney FBPase Y113A (enzyme Y113A_1), 1800 nM; on pig kidney FBPase Y113A (enzyme Y113A_2), 1700 nM. Moreover, the concentration for half-maximal inhibition (IC50) against pig kidney FBPase K112A (enzyme K112A_1) and at pig kidney FBPase K112A (enzyme K112A_2) was 1500 nM each time.
Take `[Mg+2]` [Mg^2+, magnesium]: the Ka on pig kidney FBPase M177A (enzyme M177A, association (binding) constant from saturation curve) is recorded as 0.49 (± 0.18) mM; on pig kidney FBPase L73A (setting [1]), 0.48 (± 0.17) mM; at pig kidney FBPase WT (setting [1]), 0.50 (± 0.18) mM; at pig kidney FBPase Y113A (enzyme Y113A, association (binding) constant from saturation curve) it was 0.48 (± 0.16) mM; on pig kidney FBPase K112A (enzyme K112A, association (binding) constant from saturation curve) it was 0.51 (± 0.15) mM. In addition, the Hill coefficient on pig kidney FBPase M177A (enzyme M177A, for magnesium) is 2.05 (± 0.12); on pig kidney FBPase L73A (for magnesium), 2.95 (± 0.17); at pig kidney FBPase WT (for magnesium), 2.10 (± 0.15); on pig kidney FBPase Y113A (enzyme Y113A, for magnesium) it was 2.00 (± 0.19); at pig kidney FBPase K112A (enzyme K112A, for magnesium), 1.98 (± 0.15).
